Measurements published in paper PMC11403733, “Asymmetric Dirhodium-Catalyzed Modification of Immunomodulatory Imide Drugs and Their Biological Assessment” (ACS Medicinal Chemistry Letters, 2024).

Experiments:
CRBN = biological target: T1, CRBN (Homo sapiens, UniProt Q96SW2); assay: Fluorescence Resonance Energy Transfer-Based Cereblon Binding Assay (CRBN HTRF); conditions: 0.5 nM 6×His-CRBN-DDB1, 20 nM tracer CC0782985, TR-FRET
T1 construct: (CRBN a.a. 1−442, DDB1 a.a); made in house
Procedure: (§1) Section 6: Assay Protocols
(§2) Fluorescence Resonance Energy Transfer-Based NSD@ PWWP Cereblon Binding Assay. […]
(§3) Compounds for testing were spotted into a 1536 well plate (Greiner Cat#782075). CRBN and Tracer solution were incubated in compound wells for 20 minutes. Detection mix containing Anti6xHis Tb Crytate (CisBio Cat#61HI2TLF) was then added to assay wells for a final 0.5x assay concentration of detection antibody (stock is provided at 400x). Plates were incubated for 30 minutes before being read on Pherastar FSX plate reader using TR-FRET module (Excitation 340nm, Emssion 615/665nm). ePL and HiBiT degradation assays
(§4) DF15 cells overexpressing ePL tagged GSPT1 (DF15/GSPT1 ePL OE) was used to monitor the degradation of GSPT1 induced by experimental compounds. MDS-L cells overexpressing ePL tagged CK1α and GSPT1G575N (MDS-L/CK1α ePL OE_ GSPT1G575N OE) was used to monitor the degradation of CK1α induced by experimental compounds. NCCIT cells with HiBiT tag knocked in at the c-terminus of SALL4 (NCCIT/SALL4-HiBiT KI) was used to monitor the degradation of SALL4 induced by experimental compounds. DF15 cells with HiBiT tag knocked in at the n-terminus of IKZF3 (DF15/HiBiT-IKZF3 KI) was used to monitor the degradation of AIOLOS (IKZF3) induced by experimental compounds. […]

IKZF3 (Aiolos) = biological target: T2, IKZF3 (Aiolos) (Homo sapiens, UniProt Q96SW2+Q9UKT9); assay: HiBiT degradation assay, DF15/HiBiT-IKZF3 KI cells; assay type: cell-based; conditions: N ≥ 3; for EC50: degradation, 4 hr incubation, top conc 10 uM; for IKZF3 Ymin: depth of degradation (100% = no reduction of protein level, 0% = complete degradation), 4 hr
T2 construct: endogenous in cells; host or cells: DF15 (HiBiT knock-in)
Procedure: as §1, §2, §3, §4
(§5) The cell culture medium recipes, seeding densities and compound incubation time with cells are […]
(§6) Ta r g e t Cell line Cell culture medium Seeding Compound
(§7) (HI) FBS, 1mM sodium pyruvate, 25mM Hepes, 0.1% pluronic acid,
(§8) GSPT1G575N OE ng/mL of human recombinant IL3 […]
(§9) sodium pyruvate, 25mM Hepes, 0.1% pluronic acid, 1X NEAA
(§10) For all degradation assays, compounds were pre-spotted in a 153 6 well plate (Corning 3727) starting at 10uM with 3-fold serial dilution down 11 points in replicates using an Echo 650 series acoustic liquid handler. 5uL/well cells were seeded in the assay ready plate at the density and in […]
(§11) The final DMSO concentration in the cell culture was 0.25%. The plates were equilibrated at room temperature for 30 minutes before putting into a 37 °C CO2 incubator. After appropriate incubation period, plates were retrieved from the incubator and set at room temperature to equilibrate for 30 minutes, before adding ePL or HiBiT detection reagent. For ePL detection, the pre-prepared mixture of EA reagent, lysis buffer, and substrate reagent at ratio 1:1:4 from the DiscoverX InCELL Detection Kit (Eurofins 96-0079L) according to the manufacturer ’s recommendation was added 3ul/well into the plate. Plates were incubated in the dark for 1hr at room temperature before reading using a BMG PheraStar luminescence reader. For HiBiT detection, Nano-Glo HiBiT Lytic Reagent (Promega, N3050) prepared according to the manufacturer ’s recommendation was added 3 uL/well into the plate. Plates were incubated 30 minutes at room temperature in the dark before reading using a BMG PheraStar […]
(§12) To determine EC50 values for degradation, a four parameter logistic model (Sigmoidal Dose-Response Model) (FIT= (A+((B-A)/1+((C/x)^D)))) C is the inflection point (EC50), D is […] , A and B are the low and high limits of the fit respectively) was used to determine the compound’s EC50 value, which is the half maximum effective concentration. In the degradation assays, the Yconst of each compound was calculated by normalizing the lowest point of the fitted curve to the media only control, which is 0%, and the cells treated with DMSO control, which is 100%. All degradation curves were processed and evaluated using Dotmatics.
(§13) Section 7: Biological Data Tables

CK1α = biological target: T3, CK1α (Homo sapiens, UniProt P48729+Q96SW2); assay: ePL degradation assay, MDS-L/CK1α ePL OE_GSPT1G575N OE cells; assay type: cell-based; conditions: for EC50: degradation, 4 hr incubation, top conc 10 uM, N ≥ 3, read-out: CK1a EC50; for CK1a Ymin: depth of degradation (100% = no reduction, 0% = complete degradation), 4 hr, N ≥ 3
T3 construct: expressed in transfected cells; host or cells: MDS-L
Procedure: as §1, §2, §3, §4, §5, §6, §7, §8, §9, §10, §11, §12, §13

GSPT1 = biological target: T4, GSPT1 (Homo sapiens, UniProt P15170+Q96SW2); assay: ePL degradation assay, DF15/GSPT1 ePL OE cells; assay type: cell-based; conditions: N ≥ 3; for EC50: degradation, 20 hr incubation, top conc 10 uM; for GSPT1 Ymin: depth of degradation (100% = no reduction, 0% = complete degradation), 20 hr
T4 construct: expressed in transfected cells; host or cells: DF15
Procedure: as §1, §2, §3, §4, §5, §6, §7, §8, §9, §10, §11, §12, §13

SALL4 = biological target: T5, SALL4 (Homo sapiens, UniProt Q96SW2+Q9UJQ4); assay: HiBiT degradation assay, NCCIT/SALL4-HiBiT KI cells; assay type: cell-based; conditions: N ≥ 3; for EC50: degradation, 2 hr incubation, top conc 10 uM; for SALL4 Ymin: depth of degradation (100% = no reduction, 0% = complete degradation), 2 hr
T5 construct: endogenous in cells; host or cells: NCCIT (HiBiT knock-in)
Procedure: as §1, §2, §3, §4, §5, §6, §7, §8, §9, §10, §11, §12, §13

T2 sequence (Q9UKT9 whole entry): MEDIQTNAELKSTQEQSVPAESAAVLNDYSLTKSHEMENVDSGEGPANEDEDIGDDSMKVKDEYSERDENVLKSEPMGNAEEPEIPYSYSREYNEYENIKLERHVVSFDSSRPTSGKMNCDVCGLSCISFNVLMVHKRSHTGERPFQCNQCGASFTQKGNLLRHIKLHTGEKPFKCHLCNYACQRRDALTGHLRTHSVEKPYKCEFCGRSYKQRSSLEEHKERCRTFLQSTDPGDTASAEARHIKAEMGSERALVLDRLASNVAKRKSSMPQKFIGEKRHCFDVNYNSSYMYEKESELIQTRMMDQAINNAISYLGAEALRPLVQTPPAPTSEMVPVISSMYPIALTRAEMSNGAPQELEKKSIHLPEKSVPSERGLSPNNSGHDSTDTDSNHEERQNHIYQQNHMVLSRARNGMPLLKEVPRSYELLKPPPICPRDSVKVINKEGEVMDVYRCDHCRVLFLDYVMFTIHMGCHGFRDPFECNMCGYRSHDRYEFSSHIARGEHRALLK
T2 sequence (Q96SW2 whole entry): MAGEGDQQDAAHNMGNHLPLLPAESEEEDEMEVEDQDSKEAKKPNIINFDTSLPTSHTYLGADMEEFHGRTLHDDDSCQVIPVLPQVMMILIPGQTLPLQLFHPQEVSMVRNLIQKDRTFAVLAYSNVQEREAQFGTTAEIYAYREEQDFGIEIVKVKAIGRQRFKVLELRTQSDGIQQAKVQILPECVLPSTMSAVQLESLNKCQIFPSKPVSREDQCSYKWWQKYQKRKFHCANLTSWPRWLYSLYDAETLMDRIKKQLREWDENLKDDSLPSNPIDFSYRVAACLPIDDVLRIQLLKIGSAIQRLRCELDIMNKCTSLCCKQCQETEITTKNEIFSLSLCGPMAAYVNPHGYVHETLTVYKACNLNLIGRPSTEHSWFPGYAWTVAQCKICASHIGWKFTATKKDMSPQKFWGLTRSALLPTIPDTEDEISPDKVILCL
T2 sequence (Q16531 whole entry partner): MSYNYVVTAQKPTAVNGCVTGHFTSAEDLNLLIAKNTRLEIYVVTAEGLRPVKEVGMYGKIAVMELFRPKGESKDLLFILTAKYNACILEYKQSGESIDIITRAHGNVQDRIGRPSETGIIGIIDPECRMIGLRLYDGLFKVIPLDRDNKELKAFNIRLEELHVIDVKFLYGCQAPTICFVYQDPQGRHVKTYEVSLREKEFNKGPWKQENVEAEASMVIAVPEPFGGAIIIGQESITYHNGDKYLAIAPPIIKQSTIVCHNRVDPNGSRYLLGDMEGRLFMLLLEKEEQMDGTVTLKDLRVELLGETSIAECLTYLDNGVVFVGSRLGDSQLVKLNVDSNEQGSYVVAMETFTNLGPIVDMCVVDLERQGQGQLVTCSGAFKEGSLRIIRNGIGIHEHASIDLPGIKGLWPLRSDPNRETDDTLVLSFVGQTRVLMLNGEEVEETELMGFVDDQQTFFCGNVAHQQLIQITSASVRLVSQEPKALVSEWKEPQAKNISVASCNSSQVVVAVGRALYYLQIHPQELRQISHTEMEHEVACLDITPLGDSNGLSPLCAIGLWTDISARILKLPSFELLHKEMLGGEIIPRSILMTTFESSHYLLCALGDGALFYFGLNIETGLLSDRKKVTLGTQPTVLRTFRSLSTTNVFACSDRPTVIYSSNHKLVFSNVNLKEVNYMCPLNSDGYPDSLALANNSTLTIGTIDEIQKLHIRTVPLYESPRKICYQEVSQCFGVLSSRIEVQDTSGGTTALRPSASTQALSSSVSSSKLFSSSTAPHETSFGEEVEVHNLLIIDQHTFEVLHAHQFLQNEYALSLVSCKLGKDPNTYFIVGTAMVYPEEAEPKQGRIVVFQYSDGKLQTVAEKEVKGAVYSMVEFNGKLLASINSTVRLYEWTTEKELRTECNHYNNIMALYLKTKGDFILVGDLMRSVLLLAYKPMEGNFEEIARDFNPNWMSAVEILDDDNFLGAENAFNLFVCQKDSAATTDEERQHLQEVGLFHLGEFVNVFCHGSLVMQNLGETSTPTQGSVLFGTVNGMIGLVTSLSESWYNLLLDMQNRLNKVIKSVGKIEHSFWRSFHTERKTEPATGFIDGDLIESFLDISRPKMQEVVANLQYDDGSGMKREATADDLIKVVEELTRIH
T1 sequence (Q96SW2 whole entry): as the sequence (Q96SW2 whole entry) above
T1 sequence (Q16531 whole entry partner): as the sequence (Q16531 whole entry partner) above
T5 sequence (Q9UJQ4 whole entry): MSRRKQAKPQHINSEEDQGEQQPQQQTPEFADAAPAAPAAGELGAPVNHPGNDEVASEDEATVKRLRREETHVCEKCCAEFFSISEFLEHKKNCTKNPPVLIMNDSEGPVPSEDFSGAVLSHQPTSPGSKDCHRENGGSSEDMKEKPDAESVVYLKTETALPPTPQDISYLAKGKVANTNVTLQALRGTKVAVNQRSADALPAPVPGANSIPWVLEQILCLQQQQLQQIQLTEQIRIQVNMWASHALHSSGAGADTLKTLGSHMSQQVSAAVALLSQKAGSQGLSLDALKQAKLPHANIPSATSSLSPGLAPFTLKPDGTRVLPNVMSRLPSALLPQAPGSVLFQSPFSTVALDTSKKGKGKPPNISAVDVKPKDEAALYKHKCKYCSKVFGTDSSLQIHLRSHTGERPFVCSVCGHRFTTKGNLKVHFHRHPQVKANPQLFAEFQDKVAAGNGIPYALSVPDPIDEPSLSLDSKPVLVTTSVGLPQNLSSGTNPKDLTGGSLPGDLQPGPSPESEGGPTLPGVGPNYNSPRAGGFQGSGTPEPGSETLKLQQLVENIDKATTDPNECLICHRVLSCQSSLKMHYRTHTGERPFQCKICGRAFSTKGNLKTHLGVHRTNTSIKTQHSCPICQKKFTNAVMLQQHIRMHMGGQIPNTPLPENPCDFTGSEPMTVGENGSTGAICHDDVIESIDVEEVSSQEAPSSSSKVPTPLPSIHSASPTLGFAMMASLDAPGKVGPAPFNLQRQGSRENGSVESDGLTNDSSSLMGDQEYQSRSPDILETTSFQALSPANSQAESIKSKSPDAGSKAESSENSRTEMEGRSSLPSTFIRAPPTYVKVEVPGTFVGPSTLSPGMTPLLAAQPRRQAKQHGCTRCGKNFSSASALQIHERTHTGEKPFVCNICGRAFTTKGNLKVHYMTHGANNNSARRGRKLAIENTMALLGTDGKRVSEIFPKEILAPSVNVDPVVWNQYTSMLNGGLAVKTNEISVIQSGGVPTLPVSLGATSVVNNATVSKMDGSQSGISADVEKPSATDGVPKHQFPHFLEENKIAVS
T5 sequence (Q96SW2 whole entry): as the sequence (Q96SW2 whole entry) above
T5 sequence (Q16531 whole entry partner): as the sequence (Q16531 whole entry partner) above
T4 sequence (P15170 1-637 isoform P15170-3): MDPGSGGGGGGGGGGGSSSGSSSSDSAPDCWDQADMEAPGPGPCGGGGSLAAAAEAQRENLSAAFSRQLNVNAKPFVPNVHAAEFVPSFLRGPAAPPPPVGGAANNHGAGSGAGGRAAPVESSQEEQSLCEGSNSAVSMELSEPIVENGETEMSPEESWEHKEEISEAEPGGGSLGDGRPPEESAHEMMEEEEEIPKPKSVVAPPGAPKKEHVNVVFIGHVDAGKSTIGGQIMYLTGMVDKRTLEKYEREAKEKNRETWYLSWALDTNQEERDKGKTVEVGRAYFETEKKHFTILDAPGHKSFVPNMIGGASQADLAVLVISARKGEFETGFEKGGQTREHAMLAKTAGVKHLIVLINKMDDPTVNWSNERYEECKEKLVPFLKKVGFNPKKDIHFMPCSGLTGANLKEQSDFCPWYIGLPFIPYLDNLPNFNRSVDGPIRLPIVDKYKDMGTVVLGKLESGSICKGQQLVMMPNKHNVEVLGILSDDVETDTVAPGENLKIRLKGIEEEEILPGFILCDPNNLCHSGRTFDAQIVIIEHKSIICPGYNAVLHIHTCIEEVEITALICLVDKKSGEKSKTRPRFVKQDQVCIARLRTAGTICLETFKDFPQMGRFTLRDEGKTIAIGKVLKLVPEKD
T4 sequence (Q96SW2 whole entry): as the sequence (Q96SW2 whole entry) above
T4 sequence (Q16531 whole entry partner): as the sequence (Q16531 whole entry partner) above
T3 sequence (P48729 whole entry): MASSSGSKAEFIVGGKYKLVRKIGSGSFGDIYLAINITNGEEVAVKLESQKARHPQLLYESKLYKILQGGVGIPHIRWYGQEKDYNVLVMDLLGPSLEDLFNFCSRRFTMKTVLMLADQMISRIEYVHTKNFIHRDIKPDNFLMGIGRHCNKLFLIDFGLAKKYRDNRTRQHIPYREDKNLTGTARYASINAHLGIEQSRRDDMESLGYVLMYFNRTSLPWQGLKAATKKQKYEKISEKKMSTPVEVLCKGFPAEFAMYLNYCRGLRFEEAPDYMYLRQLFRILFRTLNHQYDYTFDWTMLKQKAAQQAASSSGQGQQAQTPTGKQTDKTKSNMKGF
T3 sequence (Q96SW2 whole entry): as the sequence (Q96SW2 whole entry) above
T3 sequence (Q16531 whole entry partner): as the sequence (Q16531 whole entry partner) above

Row | Compound | IC50 (CRBN) [µM] | EC50 (IKZF3 (Aiolos)) [µM] | IKZF3 Ymin (IKZF3 (Aiolos)) [%] | EC50 (CK1α) [µM] | CK1a Ymin (CK1α) [%] | EC50 (GSPT1) [µM] | GSPT1 Ymin (GSPT1) [%] | EC50 (SALL4) [µM] | SALL4 Ymin (SALL4) [%]
1 | O=C1CCC(N2Cc3cc(C4=C[C@]4(C(=O)OCC(Cl)(Cl)Cl)c4ccc(Br)cc4)ccc3C2=O)C(=O)N1 (some centres unmarked) [Compound 21a] | 0.59 | > 10 | 95 ± 7.6 | > 10 | 89 ± 9.3 | > 10 | 81 ± 17 | > 10 | 89 ± 4.2
2 | O=C1CCC(N2Cc3cc(C4=C[C@@]4(C(=O)OCC(Cl)(Cl)Cl)c4ccc(Br)cc4)ccc3C2=O)C(=O)N1 (some centres unmarked) [Compound 21b] | 0.8 | 4.8 ± 2.6 | 79 ± 6.4 | 0.25 ± 0.37 | 57 ± 8.0 | 3.3 ± 3 | 7.7 ± 4.7 | 0.075 ± 0.05 | 68 ± 2.1
3 | O=C1CCC(N2C(=O)c3ccc(C4=C[C@]4(C(=O)OCC(Cl)(Cl)Cl)c4ccc(Br)cc4)cc3C2=O)C(=O)N1 (some centres unmarked) [Compound 22a] | 5.7 | 1.3 ± 2.1 | 73 ± 6.2 | 1.2 ± 1.2 | 60 ± 26 | 1.1 ± 0.69 |  | 3.6 ± 0.74 | 67 ± 7.8
4 | O=C1CCC(N2Cc3ccc(C4=C[C@]4(C(=O)OCC(Cl)(Cl)Cl)c4ccc(Br)cc4)cc3C2=O)C(=O)N1 (some centres unmarked) [Compound 23a] | 0.98 | > 10 | 94 ± 2.3 | > 10 | 93 ± 10 | > 10 | 82 ± 7.1 | > 10 | 95 ± 6.5
5 | O=C1CCC(N2Cc3ccc(C4=C[C@@]4(C(=O)OCC(Cl)(Cl)Cl)c4ccc(Br)cc4)cc3C2=O)C(=O)N1 (some centres unmarked) [Compound 23b] | 1.7 | > 10 | 81 ± 4.6 | > 10 | 95 ± 6.0 | > 10 | 88 ± 10 | > 10 | 91 ± 10
6 | O=C1CCC(N2Cc3cccc(C4=C[C@]4(C(=O)OCC(Cl)(Cl)Cl)c4ccc(Br)cc4)c3C2=O)C(=O)N1 (some centres unmarked) [Compound 24a] | 2.4 | > 10 | 97 ± 0.58 | > 10 | 96 ± 12 | > 10 | 85 ± 24 | > 10 | 95 ± 5.0
7 | O=C1CCC(N2Cc3cccc(C4=C[C@@]4(C(=O)OCC(Cl)(Cl)Cl)c4ccc(Br)cc4)c3C2=O)C(=O)N1 (some centres unmarked) [Compound 24b] | 2.9 | > 10 | 93 ± 2.5 | > 10 | 93 ± 6.8 | > 10 | 80 ± 4.3 | > 10 | 97 ± 5.2
